{"source": "patent US20240269238A1", "about": "“Therapeutic Regimens and Methods for Reducing Body Weight in a Subject with Fatty Liver Disease using a GLP-1R and GCGR Agonist” (Spitfire Pharma LLC, priority 2022, published 2024)", "key": {"Iron-corrected T1 (cT1)": {"test_system": "Iron-corrected T1 (cT1)", "experiment": "Phase 1 12-week NAFLD study (Example 1): iron-corrected T1 (cT1) responder analysis", "assay_type": "in vivo, human", "conditions": "week 12", "source_text": "(§1) Provided herein is disclosure of a Phase 1, multicenter, randomized, double-blind, placebo-controlled study to assess the effects of Pemvidutide (also termed herein as ALT-801), the safety of Pemvidutide and effects on hepatic fat fraction, anthropometric parameters, lipid metabolism, inflammatory markers and fibrosis markers in diabetic and non-diabetic (type 2 diabetes) overweight and obese (BMI 28.0 kg/m^2) subjects with NAFLD. This study was designed to assess changes in hepatic fat fraction by MRI-PDFF (magnetic resonance imaging-proton density fat fraction) in diabetic and non-diabetic overweight and obese subjects with NAFLD after 12 weeks of ALT-801 treatment. The trial was conducted without adjunctive diet and exercise interventions. The study assessed changes in body weight, lipid metabolism, metabolic markers, and inflammatory markers and safety and tolerability of ALT-801 after 12 weeks of treatment. Subjects were stratified for the presence or absence of diabetes at baseline. Fibroscan and cT1 assessments evaluated changes in liver inflammatory and fibrotic activity at the end of 12 weeks of treatment.\n(§2) The study, described in this example, was carried out in 94 subjects overweight and obese (body mass index [BMI] ≥28.0 kg/m^2) Type 2 diabetic and non-diabetic subjects with nonalcoholic fatty liver disease (NAFLD) over about 4.5 months, including up to a 35-day screening period, and 85-day treatment period and a 25-day follow-up period, with treatment with ALT-801 (a composition comprising SEQ ID NO.: 1, “study medication”) or placebo administered by subcutaneous (SC) injection once weekly for up to twelve (12) doses.\nAfter providing informed consent, subjects underwent a screening period of up to 35 days. Subjects were instructed on how to maintain their normal diets, alcohol consumption and physical activities and not to start any new diets, supplements, or exercise programs at any time while participating in the study. […]"}, "[1]": {"test_system": "alanine aminotransferase (ALT)", "experiment": "Phase 1 12-week NAFLD study (Example 1): serum ALT", "assay_type": "in vivo, human", "conditions": "for ALT reduction: week 12; for decline in serum ALT levels: subjects with baseline serum ALT above 30 IU/L, 12 weeks", "source_text": "as §1, §2\nThe safety objective of this study was to assess the safety and tolerability of ALT-801 in 18-65 years old subjects with NAFLD (NAFLD without significant fibrosis, defined as FibroScan® controlled attenuation parameter (CAP) ≥280 dB/m and liver stiffness measurement (LSM)<10 kPa (i.e., indicating the absence of significant fibrosis), magnetic resonance imaging derived proton density fat fraction (MRI-PDFF) ≥10%), hemoglobin Alc (HbAlc) of less than 9.5%, and alanine aminotransferase (ALT) or aspartate aminotransferase (AST) values of ≤[…]. The pharmacodynamic (PD) objectives of this study were to evaluate the effects of ALT-801 on hepatic fat fraction, anthropometric parameters, lipid metabolism, metabolic markers, inflammatory markers, fibrosis markers, and lipotoxicity markers. The pharmacokinetic (PK) objectives of this study were to evaluate the effects of ALT-801 and metformin exposure (drug interactions) on the subjects (e.g., ALT-801 and metformin concentrations in blood over time).\nAfter providing informed consent, subjects underwent a screening period of up to 35 days. Subjects were instructed on how to maintain their normal diets, alcohol consumption and physical activities and not to start any new diets, supplements, or exercise programs at any time while participating in the study. Counseling was provided on diet and exercise on the Day 1 visit and reinforced at subsequent visits. Study subjects were randomized 1:1:1:1 to one of the following treatment arms: 1) ALT-8011.2 mg SC once weekly for 12 weeks; 2) ALT-8011.8 mg SC once weekly for 12 weeks; 3) ALT-801 0.6 mg SC at week 1, 1.2 mg SC at week 2, 1.8 mg SC once weekly for 2 weeks (weeks 3 and 4), and 2.4 mg SC once weekly for weeks 5 through 12; or, 4) placebo SC once weekly for 12 weeks. Subjects were stratified by presence or absence of diabetes at baseline. Subjects in the treatment arm with a final therapeutic dose of 2.4 mg underwent a rapid 4-week dose escalation to improve tolerability and reduce the possibility of adverse events. […] See FIG. 7, second 2.4 mg column as compared to the first 2.4 mg column (this study). See WO 2022/125598. […]"}}}
{"molecule": "CC[C@H](C)[C@H](NC(=O)[C@H](Cc1ccccc1)NC(=O)[C@H](CCC(=O)O)NC(=O)[C@@H]1CCCCNC(=O)CC[C@H](NC(=O)[C@H](CC(=O)O)NC(=O)[C@H](CC(C)C)NC(=O)[C@H](Cc2ccc(O)cc2)NC(=O)[C@H](CCCCN)NC(=O)[C@H](CO)NC(=O)[C@H](Cc2ccc(O)cc2)NC(=O)[C@H](CC(=O)O)NC(=O)[C@H](CO)NC(=O)[C@@H](NC(=O)[C@H](Cc2ccccc2)NC(=O)[C@@H](NC(=O)CNC(=O)[C@H](CCC(N)=O)NC(=O)C(C)(C)NC(=O)[C@@H](N)Cc2c[nH]cn2)[C@@H](C)O)[C@H](C)O)C(=O)N[C@@H](CCCCNC(=O)C2O[C@@H](OCCCCCCCCCCCCCCCCCC(=O)O)C(O)C(O)[C@@H]2O)C(=O)N[C@@H](C)C(=O)N[C@@H](C)C(=O)N1)C(=O)N[C@@H](CCC(N)=O)C(=O)N[C@@H](Cc1c[nH]c2ccccc12)C(=O)N[C@@H](CC(C)C)C(=O)N[C@@H](CC(C)C)C(=O)N[C@@H](CCC(N)=O)C(=O)N[C@H](C(N)=O)[C@@H](C)O", "note": "(some centres unmarked) [ALT-801, Pemvidutide]", "values": [{"measurement": "proportion of subjects showing >=80 ms for Iron-corrected T1 (cT1)", "setting": "Iron-corrected T1 (cT1); 1.2 mg", "result": 87.5, "unit": "%"}, {"measurement": "proportion of subjects showing >=80 ms for Iron-corrected T1 (cT1)", "setting": "Iron-corrected T1 (cT1); 1.8 mg", "result": 83.3, "unit": "%"}, {"measurement": "proportion of subjects showing >=80 ms for Iron-corrected T1 (cT1)", "setting": "Iron-corrected T1 (cT1); 2.4 mg", "result": 85.7, "unit": "%"}, {"measurement": "ALT reduction", "setting": "[1]; all subjects, 1.2 mg", "result": "−11.2", "unit": "%"}, {"measurement": "ALT reduction", "setting": "[1]; all subjects, 1.8 mg", "result": "−13.8", "unit": "%"}, {"measurement": "ALT reduction", "setting": "[1]; all subjects, 'the 1.8 mg dose' as printed (second mention)", "result": "−13.6", "unit": "%"}, {"measurement": "ALT reduction", "setting": "[1]; subjects with baseline ALT >=30 IU/L, 1.2 mg", "result": "−17.8", "unit": "%"}, {"measurement": "ALT reduction", "setting": "[1]; subjects with baseline ALT >=30 IU/L, 1.8 mg", "result": "−20.8", "unit": "%"}, {"measurement": "ALT reduction", "setting": "[1]; subjects with baseline ALT >=30 IU/L, 2.4 mg", "result": "−27", "unit": "%"}, {"measurement": "decline in serum ALT levels", "setting": "[1]; 2.4 mg dose cohort", "result": 27.0, "unit": "IU/L"}, {"measurement": "decline in serum ALT levels", "setting": "[1]; all dose levels", "result": "more than 17 IU/L"}]}
